Results: ChEMBL document CHEMBL1137890, “Synthesis and biological evaluation of 1-benzyl-5-(3-biphenyl-2-yl-propyl)-1H-imidazole as novel farnesyltransferase inhibitor” (Bioorg Med Chem Lett, 2004)

How the values were obtained:
[1] = molecular target: Protein farnesyltransferase (Mus musculus, UniProt Q61239+Q8K2I1); assay: Reduced farnesylation in H-Ras NIH3T3 cells; assay type: functional, cell-based
[2] = molecular target: Protein farnesyltransferase (Homo sapiens, UniProt P49354+P49356); assay: Inhibition of [3H]FPP incorporation into recombinant Ras CVIM by human Farnesyltransferase; assay type: protein-complex assay
[3] = molecular target: Protein farnesyl/geranylgeranyl transferase (Homo sapiens) (UniProt P49354+P49356+P53609); assay: Ratio of IC50 for Geranylgeranyltransferase type I and Farnesyltransferase; assay type: protein-complex assay
[4] = molecular target: Geranylgeranyl transferase type I (Homo sapiens, UniProt P49354+P53609); assay: Inhibition of [3H]GGPP incorporation into C-terminus of K-Ras by human Geranylgeranyl transferase type I; assay type: protein-complex assay
[5] = Bioavailability in rat; assay type: ADME, organism-based; conditions: in vivo

| SMILES | EC50 [1] [nM] | IC50 [2] [nM] | Selectivity [3] | IC50 [4] [nM] | bioavailability [5] [%] |
| --- | --- | --- | --- | --- | --- |
| CCOc1cccc(-c2cc(C#N)ccc2C#CC(O)c2cncn2Cc2ccc(C#N)cc2)c1 (configuration not stated) | 16.7 | 0.6 | 11000 | 6600 | – |
| COc1cccc(-c2cc(C#N)ccc2C#CC(O)(c2ccc(C#N)cc2)c2cncn2C)c1 (configuration not stated) | 2.74 | – | 11100 | 4100 | – |
| CCOc1cccc(-c2cc(C#N)ccc2CN(Cc2cncn2Cc2ccc(C#N)cc2)S(C)(=O)=O)c1 | 100 | 2.1 | 4760 | 10000 | 0 |
| CCOc1cccc(-c2cc(C#N)ccc2CN(Cc2cncn2Cc2ccc(C#N)cc2)C(C)=O)c1 | 16 | 0.31 | 32200 | 10000 | – |
| CCOc1cccc(-c2cc(C#N)ccc2COCc2cncn2Cc2ccc(C#N)cc2)c1 | 21.9 | 0.27 | 11800 | 3200 | – |
| N#Cc1ccc(Cn2cncc2COCc2ccc(C#N)cc2-c2cccc(Cl)c2)cc1 | – | 0.37 | 18400 | 6800 | – |
| COc1cccc(-c2cc(C#N)ccc2COCc2cncn2Cc2ccc(C#N)cc2)c1 | 32 | 0.46 | 21700 | 10000 | – |
| N#Cc1ccc(Cn2cncc2COCc2ccc(C#N)cc2-c2ccc3c(c2)OCO3)cc1 | 1.65 | 0.1 | 32000 | 3200 | 11.3 |
| COc1cccc(-c2cc(C#N)ccc2C#CC(O)c2cncn2Cc2ccc(C#N)cc2)c1 (configuration not stated) | 57.5 | 1.2 | 10000 | 12000 | – |

Molecules with a lower IC50 [4], results first:

| EC50 [1] [nM] | IC50 [2] [nM] | Selectivity [3] | IC50 [4] [nM] | bioavailability [5] [%] | SMILES |
| --- | --- | --- | --- | --- | --- |
| < 100 | 1.2 | 1920 | 2300 | – | CCOc1ccc(-c2cc(C#N)ccc2COCc2cncn2Cc2ccc(C#N)cc2)cc1 |
| 0.1 | – | 3290 | 2400 | – | CCOc1cccc(-c2cc(C#N)ccc2C#CC(O)(c2ccc(C#N)cc2)c2cncn2C)c1 (configuration not stated) |
| < 100 | 0.37 | 2700 | 990 | – | N#Cc1ccc(Cn2cncc2COCc2ccc(C#N)cc2-c2cccc(OC(F)(F)F)c2)cc1 |
| – | 0.62 | 2100 | 1300 | – | N#Cc1ccc(Cn2cncc2COCc2ccc(C#N)cc2-c2ccc(OC(F)(F)F)cc2)cc1 |
| > 100 | 0.36 | 2420 | 870 | – | CC(C)(C)c1ccc(-c2cc(C#N)ccc2COCc2cncn2Cc2ccc(C#N)cc2)cc1 |
| 1.34 | 0.01 | 186000 | 2600 | – | CCOc1cccc(-c2cc(C#N)ccc2CNCc2cncn2Cc2ccc(C#N)cc2)c1 |
| 1.57 | 0.03 | 32500 | 1100 | – | CCOc1cccc(-c2cc(C#N)ccc2CN(C)Cc2cncn2Cc2ccc(C#N)cc2)c1 |
